Measured values taken from patent US8961680B2, “Solvent formulations” (TBF Environmental Technology Inc., priority 2013, dated 2015).

Legend:
[1] = single components, MEK, acetone; cited from earlier work
[2] = Hansen solubility parameters of blends, single components, MEK and acetone; settings: MEK, acetone, δ^2 = δD^2 + δP^2 + δH^2
Description: In some embodiments, a solvent composition according to the present disclosure includes an acetate ester, such as MA, EA, or TBAc, in combination with additional reagents to increase dispersion and decrease hydrogen bonding and/or to decrease the polarity of the composition. […] Accordingly, in some embodiments, a solvent composition according to the present disclosure may be formulated according to Hansen solubility parameters (HSP) (Hansen, 1999) and may have: a dispersion parameter (δD) between about 7.7 and about 8.5; a polarity parameter (δP) between about 4 and about 5.2; and a hydrogen bonding parameter (δH) between about 3.0 and about 3.6. Such parameters result in a Hansen Solubility Parameter (δ MPa) of about 9.0 to about 10.4, where δ^2=δD^2+δP^2+δH^2.
In alternative embodiments, a solvent composition according to the present disclosure may have: a dispersion parameter (δD) between about 7.5 and about 8; a polarity parameter (δP) between about 3 and about 4; and a hydrogen bonding parameter (δH) between about 3.2 and about 4. Such parameters result in a Hansen Solubility Parameter (δ MPa) of about 8.68 to about 9.79, where δ^2=δD^2+δP^2+δH^2. In some embodiments, a solvent composition according to the present disclosure includes a composition with HSP values similar to those of acetone. […]

[3] = reference solvents; cited from earlier work
[4] = cited from earlier work
[5] = published value; cited from earlier work
[6] = Evaporation rate relative to n-butyl acetate (=1); type: physicochemical; settings: Example 2
Description: Evaporation rates can be expressed relative to the evaporation of n-butyl acetate (=1), as a standard.

| SMILES | δD (dispersion) [1] | δH (hydrogen bonding) [1] | δP (polarity) [1] | δ (MPa) [2] [MPa] | flash point [3] [°C] | solubility in water ([4]; room temperature) [%] | stability ([4]; strong aqueous bases or aqueous acids) | published MEK ER [5] | evaporation rate [6] |
| --- | --- | --- | --- | --- | --- | --- | --- | --- | --- |
| CCOC(C)=O [Ethyl acetate, ethyl acetate] | 7.7 | 3.5 | 2.3 | – | – | – | – | – | – |
| CC1COC(=O)O1 (stereo not drawn) [PC, propylene carbonate] | 9.8 | 2 | 8.8 | – | – | – | – | – | – |
| CC(=O)OC(C)(C)C [TBA, tert-butyl acetate] | 7 | 2.9 | 1.7 | 7.765 | – | – | – | – | – |
| COC(=O)OC [DMC, dimethyl carbonate] | 8.5 | 1.9 | 4.7 | – | – | – | – | – | – |
| CC(C)=O [Acetone, acetone, reference compound] | 7.7 | 3.5 | 5.2 | 9.929 | −20 | – | – | – | – |
| COC(C)=O [Methyl acetate, methyl acetate] | 7.58 | 3.72 | 3.52 | – | −4 | 25 | not stable | – | – |
| FC(F)(F)c1ccc(Cl)cc1 [PCBTF, parachlorobenzotrifluoride] | 8.8 | 1.9 | 2.9 | – | – | – | – | – | – |
| CCC(C)=O [MEK, methyl ethyl ketone, reference compound] | 7.82 | 2.49 | 4.4 | – | −9 | – | – | 4.0 | 3.8 |
